According to ChEMBL document CHEMBL4665636, “Spirooxindole-pyrrolidine heterocyclic hybrids promotes apoptosis through activation of caspase-3” (Bioorg Med Chem, 2019):
Calls of active or inactive are those of the source. The calls are words filed in the database; no cut-off is given here.

Key:
[1] = Cytotoxicity against human MCF10 cells assessed as reduction in cell viability up to 200 uM measured up to 48 hrs by MTT assay; assay type: cell-based; conditions: mcf10, 48 h
Jurkat [2] = assay: Antiproliferative activity against human Jurkat cells assessed as reduction in cell proliferation measured after 48 hrs by MTT assay; assay type: functional, cell-based
A549 [3] = assay: Antiproliferative activity against human A549 cells assessed as reduction in cell proliferation measured after 24 hrs by MTT assay; assay type: functional, cell-based; conditions: A549, 24 h
[4] = Cytotoxicity against human PCS-130-010 cells assessed as reduction in cell viability up to 200 uM measured up to 48 hrs by MTT assay; assay type: cell-based; conditions: pcs-130-010, 48 h
Jurkat [5] = assay: Antiproliferative activity against human Jurkat cells assessed as reduction in cell proliferation measured after 24 hrs by MTT assay; assay type: functional, cell-based
A549 [6] = assay: Antiproliferative activity against human A549 cells assessed as reduction in cell proliferation measured after 48 hrs by MTT assay; assay type: functional, cell-based; conditions: A549, 48 h
A549 [7] = assay: Induction of apoptosis in human A549 cells assessed as viable cells at IC50 measured after 48 hrs by annexicV-FITC/propidium iodide staining based flow cytometry analysis (reference value: 99.67 %); assay type: functional
A549 [8] = assay: Induction of apoptosis in human A549 cells assessed as early apoptotic cells at IC50 measured after 48 hrs by annexicV-FITC/propidium iodide staining based flow cytometry analysis (reference value: 3.02 %); assay type: functional
A549 [9] = assay: Induction of apoptosis in human A549 cells assessed as distribution of cleaved caspase 3 in cytoplasm at IC50 after 24 to 48 hrs by FITC staining based microscopy analysis; assay type: functional, cell-based; conditions: time hrs 24-48
A549 [10] = assay: Induction of apoptosis in human A549 cells at IC50 measured after 24 hrs by annexicV-FITC/propidium iodide staining based flow cytometry analysis (reference value: 3.63 %); assay type: functional
A549 [11] = assay: Induction of apoptosis in human A549 cells assessed as late apoptotic cells at IC50 measured after 48 hrs by annexicV-FITC/propidium iodide staining based flow cytometry analysis (reference value: 0 %); assay type: functional
A549 [12] = assay: Induction of apoptosis in human A549 cells assessed as distribution of cleaved caspase 3 in nuclei at IC50 after 24 to 48 hrs by FITC staining based microscopy analysis; assay type: functional, cell-based; conditions: time hrs 24-48
A549 [13] = assay: Induction of apoptosis in human A549 cells assessed as early apoptotic cells at IC50 measured after 48 hrs by annexicV-FITC/propidium iodide staining based flow cytometry analysis (reference value: 0.33 %); assay type: functional
A549 [14] = assay: Induction of apoptosis in human A549 cells assessed as early apoptotic cells at IC50 measured after 24 hrs by annexicV-FITC/propidium iodide staining based flow cytometry analysis (reference value: 0.16 %); assay type: functional
A549 [15] = assay: Induction of apoptosis in human A549 cells assessed as necrotic cells at IC50 measured after 24 hrs by annexicV-FITC/propidium iodide staining based flow cytometry analysis (reference value: 0.23 %); assay type: functional
A549 [16] = assay: Induction of apoptosis in human A549 cells assessed as late apoptotic cells at IC50 measured after 24 hrs by annexicV-FITC/propidium iodide staining based flow cytometry analysis (reference value: 0.5 %); assay type: functional
A549 [17] = assay: Induction of apoptosis in human A549 cells assessed as viable cells at IC50 measured after 24 hrs by annexicV-FITC/propidium iodide staining based flow cytometry analysis (reference value: 99.11 %); assay type: functional
A549 [18] = assay: Induction of apoptosis in human A549 cells assessed as necrotic cells at IC50 measured after 48 hrs by annexicV-FITC/propidium iodide staining based flow cytometry analysis (reference value: 0 %); assay type: functional
A549 [19] = assay: Induction of apoptosis in human A549 cells assessed as viable cells by measuring fluorescence intensity at IC50 measured after 48 hrs by annexicV-FITC/propidium iodide staining based flow cytometry analysis (reference value: 96.89 %); assay type: functional
A549 [20] = assay: Induction of apoptosis in human A549 cells assessed as effect on viable cells by measuring fluorescence intensity IC50 measured after 24 hrs by annexicV-FITC/propidium iodide staining based flow cytometry analysis (reference value: 96.25 %); assay type: functional

SMILES	Activity [1]	IC50 (Jurkat [2])	IC50 (A549 [3])	Activity [4]	IC50 (Jurkat [5])	IC50 (A549 [6])	Activity (A549 [7])	Activity (A549 [8])	Activity (A549 [9])	Activity (A549 [10])	Activity (A549 [11])	Activity (A549 [12])	Activity (A549 [13])	Activity (A549 [14])	Activity (A549 [15])	Activity (A549 [16])	Activity (A549 [17])	Activity (A549 [18])	Activity (A549 [19])	Activity (A549 [20])
COc1ccc(C2C([N+](=O)[O-])C(Cc3ccc(O)cc3)NC23C(=O)Nc2ccc(OC(F)(F)F)cc23)cc1 (centres undefined)	Non-Toxic	42 µM	53.5 µM	Non-Toxic	62.9 µM	41.6 µM	–	–	–	–	–	–	–	–	–	–	–	–	–	–
O=C1Nc2ccc(OC(F)(F)F)cc2C12NC(Cc1ccc(O)cc1)C([N+](=O)[O-])C2c1ccc(Br)cc1 (centres undefined)	Non-Toxic	44.1 µM	51.4 µM	Non-Toxic	67.2 µM	37.2 µM	–	–	–	–	–	–	–	–	–	–	–	–	–	–
O=C1Nc2ccccc2C12NC(Cc1ccc(O)cc1)C([N+](=O)[O-])C2c1ccc(Br)cc1 (centres undefined)	Non-Toxic	43.2 µM	59.1 µM	Non-Toxic	73.4 µM	39.4 µM	–	–	–	–	–	–	–	–	–	–	–	–	–	–
Cc1ccc(C2C([N+](=O)[O-])C(Cc3ccc(O)cc3)NC23C(=O)Nc2ccc(OC(F)(F)F)cc23)cc1 (centres undefined)	Non-Toxic	42.9 µM	38.7 µM	Non-Toxic	52.8 µM	29.6 µM	34.83%	70.35%	Active	63.87%	17.79%	Active	24.18%	31.45%	0%	9.63%	58.92%	23.2%	29.53%	38.62%
CC[C@@]1(O)C(=O)OCc2c1cc1n(c2=O)Cc2cc3ccccc3nc2-1 [CAMPTOTHECIN]	–	22 µM	50.9 µM	–	51.5 µM	32.1 µM	53.97%	61.13%	Active	37.51%	11.17%	Active	30.71%	10.49%	6.31%	28.49%	54.71%	4.14%	39.71%	58.66%
O=C1Nc2ccc(OC(F)(F)F)cc2C12NC(Cc1ccc(O)cc1)C([N+](=O)[O-])C2c1ccc(Cl)cc1 (centres undefined)	Non-Toxic	44.8 µM	44.9 µM	Non-Toxic	67.7 µM	38.1 µM	–	–	–	–	–	–	–	–	–	–	–	–	–	–
Cc1ccc(C2C([N+](=O)[O-])C(Cc3ccc(O)cc3)NC23C(=O)Nc2ccccc23)cc1 (centres undefined)	Non-Toxic	47.8 µM	106 µM	Non-Toxic	114 µM	56.7 µM	–	–	–	–	–	–	–	–	–	–	–	–	–	–
COc1ccc(C2C([N+](=O)[O-])C(Cc3ccc(O)cc3)NC23C(=O)Nc2ccccc23)cc1 (centres undefined)	Non-Toxic	47.5 µM	59.2 µM	Non-Toxic	76.2 µM	47.8 µM	–	–	–	–	–	–	–	–	–	–	–	–	–	–
O=C1Nc2ccccc2C12NC(Cc1ccc(O)cc1)C([N+](=O)[O-])C2c1cccc([N+](=O)[O-])c1 (centres undefined)	Non-Toxic	48.6 µM	78.4 µM	Non-Toxic	74.6 µM	117 µM	–	–	–	–	–	–	–	–	–	–	–	–	–	–
O=C1Nc2ccc(OC(F)(F)F)cc2C12NC(Cc1ccc(O)cc1)C([N+](=O)[O-])C2c1cccc([N+](=O)[O-])c1 (centres undefined)	Non-Toxic	50.1 µM	65 µM	Non-Toxic	83.3 µM	61.2 µM	–	–	–	–	–	–	–	–	–	–	–	–	–	–
O=C1Nc2ccc(OC(F)(F)F)cc2C12NC(Cc1ccc(O)cc1)C([N+](=O)[O-])C2c1ccccc1 (centres undefined)	Non-Toxic	45 µM	45.8 µM	Non-Toxic	65.8 µM	44.7 µM	–	–	–	–	–	–	–	–	–	–	–	–	–	–
O=C1Nc2ccccc2C12NC(Cc1ccc(O)cc1)C([N+](=O)[O-])C2c1ccccc1 (centres undefined)	Non-Toxic	61.6 µM	78.9 µM	Non-Toxic	98.3 µM	66.6 µM	–	–	–	–	–	–	–	–	–	–	–	–	–	–
O=C1Nc2ccccc2C12NC(Cc1ccc(O)cc1)C([N+](=O)[O-])C2c1ccc(Cl)cc1 (centres undefined)	Non-Toxic	51.5 µM	74.4 µM	Non-Toxic	77.8 µM	59.2 µM	–	–	–	–	–	–	–	–	–	–	–	–	–	–
